Measured values taken from patent US20240002388A1, “PYRIMIDINONE COMPOUNDS AND USES THEREOF” (HUTCHISON MEDIPHARMA LIMITED, priority 2020, published 2024).

These compounds were tested on U937 cell line (human histiocytic lymphoma cell line) (assay: U937 cell viability assay (TNF-α + Z-VAD-FMK induced necroptosis)). Conditions: Homo sapiens, U-937; U937 cells, hTNF-α 0.1 μg/mL + Z-VAD-FMK 50 μM, 20 hours, CellTiter-Glo.
Type: cell-based
Protocol: U937 cell line (human histiocytic lymphoma cell line): purchased from ATCC (American Type Culture Collection) Cell Bank, cultured in a 5% CO2, 37° C. incubator, and RPMI 1640 medium which contains L-glutamine, 1.5 g/L sodium bicarbonate, 2.383 g/L HEPES solution, 0.11 g/L sodium pyruvate and 4.5 g/L glucose, plus 10% fetal bovine serum (FBS) was used. • RPMI 1640 medium: GIBCO, Cat #A10491-01; • Fetal bovine serum (FBS): GIBCO, Cat #10099-141C; • Dimethyl sulfoxide (DMSO): Sigma, Cat #D2650; • Recombinant Human TNF-alpha Protein (hTNF-α): R&D system, Cat #210-TA-100; • Pan-Caspase inhibitor (Z-VAD-FMK): Selleckchem, Cat #S7023; • CellTiter-Glo 2.0 Cell Viability Assay kit: Promega, Cat #G9242; • Microwell plate reader: Envision, Perkin Elmer; • 96-well plate: Corning, Cat #3917.
The U937 cells at the logarithmic phase were taken out, centrifuged to remove the medium, washed with PRMI 1640 medium containing 1% FBS, and diluted with 1% FBS-containing RPMI 1640 medium to 2.5×10^5 cells/ml, inoculated at 70 μL/well into a 96-well plate, i.e., 1.75×10^4 cells/well. The plate was cultured in a 5% CO2, 37° C. cell incubator. After incubating for 1 hour, the test compound was diluted to the corresponding concentrations using DMSO with 3-fold serial dilution, then the corresponding concentration of DMSO diluted solution was diluted into 1% FBS-containing RPMI 1640 medium, and 10 μL/well of the diluted test compound with different concentrations (final concentration of test compound was 1.0, 0.333, 0.111, 0.037, 0.012, 0.004, 0.0014 and 0.0005 μM, while final concentration of DMSO was 0.3%) or 10 μL/well control solution (3% DMSO) were added to the cell culture system respectively, with the total volume being 80 μL/well; Then 10 μL of Z-VAD-FMK solution diluted with 1% FBS-containing RPMI 1640 medium (final concentration of 50 μM) or 10 μL of control solution (2.5% DMSO) was added to each well, with the total volume being 90 μL/well. The plate was incubated in a 5% CO2, 37° C. cell culture incubator for 1 hour.
After being cultured for 1 hour, 10 μL of human recombinant TNF-α protein diluted with 1% FBS-containing RPMI 1640 medium (final concentration of 0.1 μg/mL) or 10 μL/well control solution (1% FBS-containing RPMI 1640 medium) was added to each well. The plate was incubated in a 5% CO2, 37° C. cell culture incubator for 20 hours.
The cell culture plate was taken out from the incubator, and left to stand at room temperature for 30 minutes. Meanwhile, CellTiter-Glo viability assay kit was put from freezer to room temperature, and 50 μL of CellTiter-Glo reagent was added to all wells, the plate was shaken for 1 minutes, protected from light at room temperature for 10 minutes then read the plate on Envision to get the luminescence signal.
The 96-well plate in the dark was taken out, and the chemiluminescence was determined using the Envision microwell plate reader as the signal value of each well.
The mean signal value of the wells of the mixed solution of recombinant human TNF-alpha protein (final concentration of 0.1 μg/mL) and Pan-Caspase inhibitor (final concentration of 50 μM) was used as the lower value, and the mean signal value of the wells without stimulation was used as the upper value. According to the signal value of each well, the inhibition rate of each concentration of every compound was calculated, and the IC50 value of compound was obtained by Model 205 in XL-Fit 5.3 software (ID Business Solutions Limited).
Inhibition rate %=[(Luminescence readout of treated compound−Luminescence readout of positive control)/(Luminescence readout of negative control−Luminescence readout of positive control)]×100%, wherein

| SMILES | IC50 [nM] |
| --- | --- |
| CC(C)n1cncc(-c2ccc(C3(NC(=O)c4ncc5cnn(C(C)C6CC6)c5n4)CC3)cc2)c1=O (racemic) [Compound 59, 1-(1-cyclopropylethyl)-N-(1-(4-(1-i-propyl-6-oxo-1,6-dihydropyrimidin-5-yl)phenyl)cyclopropyl)-1H-pyrazolo[3,4-d]pyrimidine-6-carboxamide] | 3 |
| CC(C)n1ncc2cnc(C(=O)NC3(c4ccc(-c5cncn([C@H](C)C(F)(F)F)c5=O)cc4F)CC3)nc21 (stereo in doubt) [Compound 46] | 2 |
| CC(C)n1ncc2cnc(C(=O)NC3(c4ccc(-c5cncn([C@@H](C)C(F)(F)F)c5=O)cc4F)CC3)nc21 (stereo in doubt) [Compound 47] | 2 |
| CC(C)n1ncc2cnc(C(=O)NC3(c4ccc(-c5cncn(C6CCOC6)c5=O)cc4)CC3)nc21 (stereo in doubt) [Compound 80, (R)-1-i-propyl-N-(1-(4-(6-oxo-1-(tetrahydrofuran-3-yl)-1,6-dihydropyrimidin-5-yl)phenyl)cyclopropyl)-1H-pyrazolo[3,4-d]pyrimidine-6-carboxamide] | 9 |
| CC(C)n1ncc2cnc(C(=O)NC3(c4ccc(-c5cncn(C6CCOC6)c5=O)cc4)CC3)nc21 (stereo in doubt) [Compound 81, (S)-1-i-propyl-N-(1-(4-(6-oxo-1-(tetrahydrofuran-3-yl)-1,6-dihydropyrimidin-5-yl)phenyl)cyclopropyl)-1H-pyrazolo[3,4-d]pyrimidine-6-carboxamide] | 8 |
| CC(C#N)n1cncc(-c2ccc(C3(NC(=O)c4ncc5cnn(C(C)C)c5n4)CC3)cc2)c1=O (stereo in doubt) [Compound 82, (R)—N-(1-(4-(1-(1-cyanoethyl)-6-oxo-1,6-dihydropyrimidin-5-yl)phenyl)cyclopropyl)-1-i-propyl-1H-pyrazolo[3,4-d]pyrimidine-6-carboxamide] | 18 |
| CC(C#N)n1cncc(-c2ccc(C3(NC(=O)c4ncc5cnn(C(C)C)c5n4)CC3)cc2)c1=O (stereo in doubt) [Compound 83, (S)—N-(1-(4-(1-(1-cyanoethyl)-6-oxo-1,6-dihydropyrimidin-5-yl)phenyl)cyclopropyl)-1-i-propyl-1H-pyrazolo[3,4-d]pyrimidine-6-carboxamide] | 17 |
| CC(C)n1ncc2cnc(C(=O)NC3(c4ccc(-c5cncn(C)c5=O)cc4)CC3)nc21 [Compound 1, 1-isopropyl-N-(1-(4-(1-methyl-6-oxo-1,6-dihydropyrimidin-5-yl)phenyl)cyclopropyl)-1H-pyrazolo[3,4-d]pyrimidine-6-carboxamide] | 21 |
| CC(C)n1ncc2cnc(C(=O)NC3(c4ccc(-c5cncn(C)c5=O)cn4)CC3)nc21 [Compound 2] | 170 |
| Cn1cncc(-c2ccc(C3(NC(=O)c4nnc(Cc5ccccc5)[nH]4)CC3)cc2)c1=O [Compound 3] | 21 |
| Cn1cncc(-c2ccc(C3(NC(=O)c4ncc5cnn(-c6ccccc6)c5n4)CC3)cc2)c1=O [Compound 4] | 17 |
| Cn1cncc(-c2ccc(C3(NC(=O)c4cc(Cc5ccccc5)on4)CC3)cc2)c1=O [Compound 5] | 24 |
| CC(C)Cc1nc(C(=O)NC2(c3ccc(-c4cncn(C)c4=O)cc3)CC2)ncc1Cl [Compound 6] | 21 |
| Cn1cncc(-c2ccc(C3(NC(=O)c4ncn(Cc5ccccc5)n4)CC3)cc2)c1=O [Compound 8] | 14 |
| Cn1cncc(-c2ccc(C3(NC(=O)c4noc(Cc5ccccc5)n4)CC3)cc2)c1=O [Compound 9] | 52 |
| Cn1cncc(-c2ccc(C3(NC(=O)c4ncc(Cc5ccccc5)o4)CC3)cc2)c1=O [Compound 10] | 8 |
| Cn1cncc(-c2ccc(C3(NC(=O)c4nnc(Cc5ccccc5)o4)CC3)cc2)c1=O [Compound 11] | 139 |
| CC(C)n1ncc2cnc(C(=O)NC3(c4ccc(-c5cncn(C6CC6)c5=O)cc4)CC3)nc21 [Compound 12] | 18 |
| CC(C)n1cncc(-c2ccc(C3(NC(=O)c4nnc(Cc5ccccc5)o4)CC3)cc2)c1=O [Compound 13] | 4 |
| CC(C)n1cncc(-c2ccc(C3(NC(=O)c4nc5n(n4)[C@@H](c4ccccc4)CC5)CC3)cc2)c1=O [Compound 15] | 20 |

| SMILES | IC50 [nM] |
| --- | --- |
| CC(C)n1cncc(-c2ccc(C3(NC(=O)c4nc5n(n4)[C@H](c4ccccc4)CC5)CC3)cc2)c1=O [Compound 16] | 2 |
| CC(C)n1cncc(-c2ccc(C3(NC(=O)c4ncn(Cc5ccccc5)n4)CC3)cc2)c1=O [Compound 17] | 1 |
| Cn1cncc(-c2ccc(C3(NC(=O)c4nnc(Cc5c(F)cccc5F)[nH]4)CC3)cc2)c1=O [Compound 18] | 82 |
| CC(C)n1cncc(-c2ccc(C3(NC(=O)c4ncc5cnn(-c6ccccc6)c5n4)CC3)cc2)c1=O [Compound 19] | 3 |
| CC(C)Cc1nc(C(=O)NC2(c3ccc(-c4cncn(C(C)C)c4=O)cc3)CC2)ncc1Cl [Compound 22] | 3 |
| CC(C)n1ncc2cnc(C(=O)NC3(c4ccc(-c5cncn(C)c5=O)c(F)c4)CC3)nc21 [Compound 23, N-(1-(3-fluoro-4-(1-methyl-6-oxo-1,6-dihydropyrimidin-5-yl)phenyl)cyclopropyl)-1-isopropyl-1H-pyrazolo[3,4-d]pyrimidine-6-carboxamide] | 57 |
| CC(C)n1ncc2cnc(C(=O)NC3(c4ccc(-c5cncn(C)c5=O)c(Cl)c4)CC3)nc21 [Compound 25] | 32 |
| CC(C)n1ncc2cnc(C(=O)NC3(c4ccc(-c5cncn(C)c5=O)cc4F)CC3)nc21 [Compound 26] | 12 |
| CC(C)n1ncc2cnc(C(=O)NC3(c4ccc(-c5cncn(C)c5=O)cc4)CC3)cc21 [Compound 28, 1-isopropyl-N-(1-(4-(1-methyl-6-oxo-1,6-dihydropyrimidin-5-yl)phenyl)cyclopropyl)-1H-pyrazolo[4,3-c]pyridine-6-carboxamide] | 135 |
| CC(C)n1cncc(-c2ccc(C3(NC(=O)c4ncc5cnn(C(C)C)c5n4)CC3)cc2)c1=O [Compound 29, 1-isopropyl-N-(1-(4-(1-isopropyl-6-oxo-1,6-dihydropyrimidin-5-yl)phenyl)cyclopropyl)-1H-pyrazolo[3,4-d]pyrimidine-6-carboxamide] | 3 |
| CC(C)n1ncc2cnc(C(=O)NC3(c4ccc(-c5cnc(N)n(C)c5=O)cc4)CC3)nc21 [Compound 30] | 8 |
| CC(C)n1cncc(-c2ccc(C3(NC(=O)c4ncc5cnn(C(C)C)c5n4)CC3)cc2Cl)c1=O [Compound 33] | 10 |
| CC(C)n1cncc(-c2ccc(C3(NC(=O)c4ncc5cnn(C(C)C)c5n4)CC3)c(F)c2)c1=O [Compound 34] | 7 |
| CC(C)n1cncc(-c2ccc(C3(NC(=O)c4ncc5cnn(C(C)C)c5n4)CC3)cc2F)c1=O [Compound 35] | 11 |
| CC(C)n1ncc2cnc(C(=O)NC3(c4ccc(-c5cncn(CC6CC6)c5=O)cc4)CC3)nc21 [Compound 36] | 3 |
| CCn1cncc(-c2ccc(C3(NC(=O)c4ncc5cnn(C(C)C)c5n4)CC3)cc2)c1=O [Compound 37] | 14 |
| CC(C)n1ncc2cnc(C(=O)NC3(c4ccc(-c5cncn(CC(F)(F)F)c5=O)cc4)CC3)nc21 [Compound 38] | 13 |
| CC(C)n1ncc2cnc(C(=O)NC3(c4ccc(-c5cncn([C@H](C)C(F)(F)F)c5=O)cc4)CC3)nc21 [Compound 39] | 6 |
| CC(C)n1ncc2cnc(C(=O)NC3(c4ccc(-c5cncn([C@@H](C)C(F)(F)F)c5=O)cc4)CC3)nc21 [Compound 40] | 12 |
| CC(C)n1ncc2cnc(C(=O)NC3(c4ccc(-c5cncn(C6COC6)c5=O)cc4)CC3)nc21 [Compound 41] | 64 |
